The target in one experiment is calmodulin (Bos taurus, UniProt P62157). Briefly: Calmodulin inhibitory activity (calmodulin-activated cyclic nucleotide phosphodiesterase, [3H]cGMP). Format: biochemical. The note with it: 10^-5 M.
For experiment [1], the system named is spontaneous hypertensive rat (SHR). Briefly: Hypotensive activity in spontaneous hypertensive rat (SHR), Plethysmograph method. The note with it: SHR male rats, oral, 100 mg/kg; for Change of blood pressure, 1 hour: 1 hour after administration; for Change of blood pressure, 5 hours: 5 hours after administration. Format: in vivo. As for the experimental part: Hypotensive activity in spontaneous hypertensive rat (SHR)
SHR male rats of twenty weeks old were used. They were warmed in an incubator at 37° C. for 5 minutes and the measurement was conducted according to Plethysmograph method. Medicines (the compounds in the above Examples) were suspended in gum arabic-water and were orally administered in an amount of 2.5 ml/kg. Blood pressure was measured before administration of medicines, at 1 hour and at 5 hours after administration, and the change of the value from that before administration was determined, respectively.

For another experiment, the system named is rat heart. Kind of experiment: Effect on incidence of arrhythmia caused by ischemia and following reperfusion in rat heart. Format: in vivo. The note with it: 1 hour before ligation, until 10 minutes after reperfusion. As for the experimental part: Effect on incidence of arrhythmia caused by ischemia and following reperfusion in rat heart
Male Sprague Dawley rats (Japan Clea) of 9 to 10 weeks old were anesthetized with 50 mg/kg (i.p.) of sodium pentobarbital. The heart was exposed by a left thoractomy under artificial ventilation with room air and silk suture was placed under the main left coronary artery (LAD) to ligate for 5 minutes. Then, the ligature was released again for reperfusion. The incidence of ventricular tachycardia (VT), ventricular fibrillation (VF) and cardiac arrest (CA) caused until 10 minutes after reperfusion were noted. Medicines (compounds obtained in the above Examples) were orally administered (5 ml/kg) at 1 hour before tightening the ligature. The effect of medicines were estimated in comparison with the frequency of a group received a vehicle according to X^2 -test.

The source of these data is patent publication US5244908A, “Imidazopyridine derivatives and their pharmaceutical use” (Takeda Chemical Industries, Ltd., priority 1990, dated 1993).

The structures appear in SMILES notation. Where a name gives a salt, the structure may show the parent alone.

As usually defined, the inhibition is the drop in the measured response relative to a control, in per cent. Higher therefore signals a strong effect. `O=S(=O)(NCCCSc1cccc2nccn12)C(F)(F)F` [Compound 28, 5-[3-(Trifluoromethylsulfonylamino)propylthio]imidazo[1,2-a]pyridine] returned an inhibition at 10 µM at calmodulin of 72%. In experiment [1], the “Change of blood pressure, 1 hour” value is recorded as -13.5 mmHg and the “Change of blood pressure, 5 hours” value was -43.0 mmHg.

On calmodulin, `O=C(NCc1ccncc1)OCCSc1cccc2nccn12` [Compound 127, 5-[2-[4-(Pyridyl)methylcarbamoyloxy]ethylthio]imidazo[1,2-a]pyridine] gave an inhibition at 10 µM of 57%. Also, in the experiment on rat heart (30 mg/kg oral), the “CA (Frequency), cardiac arrest” value is listed as 0/3; the “VF (Frequency), ventricular fibrillation” value is 1/3; the “VT (Frequency), ventricular tachycardia” value is given as 1/3.

At calmodulin, `CS(=O)(=O)NCCCOc1cccc2nccn12` [Compound 64, 5-[3-(methylsulfonylamino)propyloxy]imidazo[1,2-a]pyridine] yielded an inhibition at 10 µM of 82%. In experiment [1], the “Change of blood pressure, 1 hour” value is reported as -31.0 mmHg and the “Change of blood pressure, 5 hours” value is given as -27.0 mmHg. In addition, in the experiment on rat heart (30 mg/kg oral), the “CA (Frequency), cardiac arrest” value is 1/3; the “VF (Frequency), ventricular fibrillation” value is given as 1/3; the “VT (Frequency), ventricular tachycardia” value is given as 1/3.

On to `O=S(=O)(NCCSc1cccc2nccn12)C(F)(F)F` [Compound 26, 5-[2-(Trifluoromethylsulfonylamino)ethylthio]imidazo[1,2-a]pyridine], for which the inhibition at 10 µM on calmodulin is 100%. In the experiment on rat heart (10 mg/kg oral), the “CA (Frequency), cardiac arrest” value was 1/3; the “VF (Frequency), ventricular fibrillation” value is on record as 1/3; the “VT (Frequency), ventricular tachycardia” value is reported as 2/3.

As for `CC(=O)Nc1ccc(S(=O)(=O)NCCSc2cccc3nccn23)cc1` [Compound 32, 5-[2-[4-(Acetamido)phenylsulfonylamino]ethylthio]imidazo[1,2-a]pyridine], the inhibition at 10 µM against calmodulin is 62%. Also, in the experiment with rat heart (30 mg/kg oral), the “CA (Frequency), cardiac arrest” value is 1/3; the “VF (Frequency), ventricular fibrillation” value is 1/3; the “VT (Frequency), ventricular tachycardia” value was 1/3.

`CN(C)Cc1cnc2cccc(SCCNS(C)(=O)=O)n12` [Compound 16, 3-Dimethylaminomethyl-5-[2-(methylsulfonylamino)ethylthio]imidazo[1,2-a]pyridine.dihydrochloride]: the inhibition at 10 µM against calmodulin came to 66%.

In the case of `COC(=O)NCCCSc1cccc2nccn12` [Compound 145, 5-[3-(Methoxycarbonylamino)propylthio]imidazo[1,2-a]pyridine], the inhibition at 10 µM against calmodulin is 63%.

`COC(=O)NCCSc1cccc2nccn12` [Compound 128, 5-[2-(methoxycarbonylamino)ethylthio]imidazo[1,2-a]pyridine] displayed an inhibition at 10 µM on calmodulin of 50%.

Take `CS(=O)(=O)NCCSc1cccc2ncc(CN3CCOCC3)n12` [Compound 14, 5-[2-(methylsulfonylamino)ethylthio]3-morpholinomethylimidazo[1,2-a]pyridine]: 10 µM produced 85% inhibition at calmodulin. Further, in the experiment with rat heart (10 mg/kg oral), the “CA (Frequency), cardiac arrest” value is 0/3; the “VF (Frequency), ventricular fibrillation” value is 0/3; the “VT (Frequency), ventricular tachycardia” value is 1/3.

In turn, `O=S(=O)(NCCSc1cccc2nccn12)c1ccccc1` [Compound 30, 5-[2-(Phenylsulfonylamino)ethylthio]imidazo[1,2-a]pyridine] displayed an inhibition at 10 µM against calmodulin of 64%.

On to `CNC(=O)OCCSc1cccc2nccn12` [Compound 118, 5-[2-(methylcarbamoyloxy)ethylthio]imidazo[1,2-a]pyridine], for which 10 µM produced 74% inhibition against calmodulin. Moreover, in the experiment on rat heart (30 mg/kg oral), the “CA (Frequency), cardiac arrest” value was 0/3; the “VF (Frequency), ventricular fibrillation” value was 1/3; the “VT (Frequency), ventricular tachycardia” value is 1/3.

`CC(=O)Nc1nc(C)c(S(=O)(=O)NCCSc2cccc3nccn23)s1` [Compound 51, 5-[2-[2-(Acetylamino)-4-(methyl)-(5-thiazolyl)sulfonylamino]ethylthio]imidazo[1,2-a]pyridine] gave an inhibition at 10 µM at calmodulin of 83%.

In the case of `CC(C)OC(=O)NCCCCSc1cccc2nccn12` [Compound 169, 5-[4-(isopropyloxycarbonylamino)butylthio]imidazo[1,2-a]pyridine], testing at 10 µM against calmodulin gave an inhibition of 58%.

The molecule `O=S(=O)(NCCSc1cccc2nccn12)c1cccc2ccccc12` [Compound 42, 5-[2-[(1-Naphthyl)sulfonylamino]ethylthio]imidazo[1,2-a]pyridine] had an inhibition at 10 µM at calmodulin of 100%.

At calmodulin, `CCCCCCCCCCCCCCCCS(=O)(=O)NCCSc1cccc2nccn12` [Compound 9, 5-[2-(Hexadecylsulfonylamino)ethylthio]imidazo[1,2-a]pyridine] registered an inhibition at 10 µM of 100%.

The molecule `CC(=O)NCCSc1cccc2nccn12` [Compound 83, 5-[2-(acetylamino)ethylthio]imidazo[1,2-a]pyridine] had an inhibition at 10 µM against calmodulin of 76%.

On to `CCNC(=O)NCCSc1cccc2nccn12` [Compound 101, 5-[2-(Ethylcarbamoylamino)ethylthio]imidazo[1,2-a]pyridine], for which the inhibition at 10 µM on calmodulin is 56%.

Regarding `O=S(=O)(NCC(Oc1cccc2nccn12)c1ccccc1)C(F)(F)F` (centres unmarked) [Compound 75, 5-[[1-(Phenyl)-2-(trifluoromethylsulfonylamino)]ethyloxy]imidazo[1,2-a]pyridine], testing at 10 µM at calmodulin gave an inhibition of 55%.

In turn, `CCCOC(=O)NCCSc1cccc2nccn12` [Compound 130, 5-[2-(Propyloxycarbonylamino)ethylthio]imidazo[1,2-a]pyridine] came in with an inhibition at 10 µM on calmodulin of 50%.

At calmodulin, `O=S(=O)(NCCSc1cccc2nccn12)c1ccc(Cl)cc1` [Compound 34, 5-[2-[4-(Chloro)phenylsulfonylamino]ethylthio]imidazo[1,2-a]pyridine] showed an inhibition at 10 µM of 53%.

The molecule `O=S(=O)(/C=C/c1ccccc1)N(CCSc1cccc2nccn12)S(=O)(=O)/C=C/c1ccccc1` [Compound 50, 5-[2-[N,N-di-(E)-Styrylsulfonylamino]ethylthio]imidazo[1,2-a]pyridine] returned an inhibition at 10 µM at calmodulin of 65%.

Molecule `O=S(=O)(NCCSc1cccc2nccn12)c1cc(Cl)c(Cl)cc1Cl` [Compound 37, 5-[2-[2,4,5-(Trichloro)phenylsulfonylamino]ethylthio]imidazo[1,2-a]pyridine] returned an inhibition at 10 µM on calmodulin of 58%.

At calmodulin, `CC(C)OC(=O)NCCSc1cccc2ncc(CN3CCOCC3)n12` [Compound 144, 5-[2-(Isopropyloxycarbonylamino)ethylthio]-3-(morpholinomethyl)imidazo[1,2-a]pyridine] yielded an inhibition at 10 µM of 60%.

On calmodulin, `CN(C)c1cccc2c(S(=O)(=O)NCCSc3cccc4nccn34)cccc12` [Compound 48, 5-[2-[5-(Dimethylamino)-(1-naphthylsulfonylamino)]ethylthio]imidazo[1,2-a]pyridine] gave an inhibition at 10 µM of 50%.

Turning to `O=S(=O)(NCCCCOc1cccc2nccn12)C(F)(F)F` [Compound 67, 5-[4-(Trifluoromethylsulfonylamino)butyloxy]imidazo[1,2-a]pyridine], the inhibition at 10 µM on calmodulin came out at 72%. Besides, in experiment [1], the “Change of blood pressure, 1 hour” value is reported as -15.0 mmHg and the “Change of blood pressure, 5 hours” value was -22.0 mmHg.

As for `Cc1cn2c(SCCNS(=O)(=O)c3cccc4ccccc34)cccc2n1` [Compound 56, 2-Methyl-5-[2-(1-naphthylsulfonylamino)ethylthio]imidazo[1,2-a]pyridine], at calmodulin, the inhibition at 10 µM came out at 62%.

`O=C(NCCSc1cccc2nccn12)C(F)(F)F` [Compound 84, 5-[2-(Trifluoroacetylamino)ethylthio]imidazo[1,2-a]pyridine] registered an inhibition at 10 µM at calmodulin of 69%.

For `O=S(=O)(NCCSc1cccc2nccn12)c1ccc2ccccc2c1` [Compound 44, 5-[2-[(2-Naphthyl)sulfonylamino]ethylthio]imidazo[1,2-a]pyridine], on calmodulin, the inhibition at 10 µM was 65%.

For `O=S(=O)(NCCCCCOc1cccc2nccn12)C(F)(F)F` [Compound 69, 5-[5-(Trifluoromethylsulfonylamino)pentyloxy]imidazo[1,2-a]pyridine], the inhibition at 10 µM against calmodulin was 57%. For the same molecule, in experiment [1], the “Change of blood pressure, 1 hour” value is reported as -7.0 mmHg and the “Change of blood pressure, 5 hours” value is reported as -32.0 mmHg.

On calmodulin, `O=S(=O)(NCCCCSc1cccc2nccn12)c1cccc2ccccc12` [Compound 168, 5-[4-(1-naphthalenesulfonylamino)butylthio]imidazo[1,2-a]pyridine] displayed an inhibition at 10 µM of 56%.
